{"source": "ChEMBL document CHEMBL1201862", "about": "“PubChem BioAssay data set” (2004)", "key": {"[1]": {"target": "Mothers against decapentaplegic homolog 3 (Homo sapiens, UniProt P84022)", "sequence (P84022 whole entry)": "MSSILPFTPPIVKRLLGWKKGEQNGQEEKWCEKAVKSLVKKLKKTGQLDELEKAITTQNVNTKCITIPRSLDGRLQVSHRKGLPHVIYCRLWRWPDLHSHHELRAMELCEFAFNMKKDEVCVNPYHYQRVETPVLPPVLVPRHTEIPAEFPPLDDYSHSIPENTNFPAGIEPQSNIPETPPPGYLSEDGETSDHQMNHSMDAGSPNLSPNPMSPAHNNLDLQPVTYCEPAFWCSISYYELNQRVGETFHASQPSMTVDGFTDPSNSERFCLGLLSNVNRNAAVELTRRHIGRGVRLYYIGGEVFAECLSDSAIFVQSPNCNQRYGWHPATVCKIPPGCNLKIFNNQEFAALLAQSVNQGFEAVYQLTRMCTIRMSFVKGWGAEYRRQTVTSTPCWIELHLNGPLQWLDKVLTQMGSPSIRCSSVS", "test": "SMAD3 transcription factor inhibitors, dose response (AID 715)", "format": "functional"}, "[2]": {"target": "Protein-tyrosine kinase 2-beta (Homo sapiens, UniProt Q14289)"}, "[3]": {"tested_on": "Vero", "test": "Vero cell cytotoxicity, cytotoxicity control for flavivirus capping enzyme inhibitors (AID 588742)", "format": "functional", "details": "Chlorocebus sabaeus"}, "[4]": {"tested_on": "A-375", "test": "MITF: Counter assay: A375 proliferation Measured in Cell-Based System Using Plate Reader - 2084-03_Inhibitor_Dose_DryPowder_Activity. [Related pubchem assays (depositor defined):AID488944]", "format": "functional", "details": "Homo sapiens"}, "[5]": {"target": "Casein kinase I isoform alpha (Homo sapiens, UniProt P48729)", "sequence (P48729 whole entry, canonical isoform)": "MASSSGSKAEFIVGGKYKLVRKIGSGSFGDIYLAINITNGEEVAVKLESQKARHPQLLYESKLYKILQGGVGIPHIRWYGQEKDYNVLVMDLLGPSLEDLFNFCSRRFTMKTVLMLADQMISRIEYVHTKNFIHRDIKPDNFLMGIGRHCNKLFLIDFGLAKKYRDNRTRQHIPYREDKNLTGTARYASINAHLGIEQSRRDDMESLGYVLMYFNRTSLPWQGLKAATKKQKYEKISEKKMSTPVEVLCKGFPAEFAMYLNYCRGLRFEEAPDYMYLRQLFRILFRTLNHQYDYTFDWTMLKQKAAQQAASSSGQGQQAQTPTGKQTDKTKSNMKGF", "format": "functional"}, "[6]": {"target": "LIM domain kinase 1 (Homo sapiens, UniProt P53667)", "sequence (P53667 whole entry, the tested form may be a part)": "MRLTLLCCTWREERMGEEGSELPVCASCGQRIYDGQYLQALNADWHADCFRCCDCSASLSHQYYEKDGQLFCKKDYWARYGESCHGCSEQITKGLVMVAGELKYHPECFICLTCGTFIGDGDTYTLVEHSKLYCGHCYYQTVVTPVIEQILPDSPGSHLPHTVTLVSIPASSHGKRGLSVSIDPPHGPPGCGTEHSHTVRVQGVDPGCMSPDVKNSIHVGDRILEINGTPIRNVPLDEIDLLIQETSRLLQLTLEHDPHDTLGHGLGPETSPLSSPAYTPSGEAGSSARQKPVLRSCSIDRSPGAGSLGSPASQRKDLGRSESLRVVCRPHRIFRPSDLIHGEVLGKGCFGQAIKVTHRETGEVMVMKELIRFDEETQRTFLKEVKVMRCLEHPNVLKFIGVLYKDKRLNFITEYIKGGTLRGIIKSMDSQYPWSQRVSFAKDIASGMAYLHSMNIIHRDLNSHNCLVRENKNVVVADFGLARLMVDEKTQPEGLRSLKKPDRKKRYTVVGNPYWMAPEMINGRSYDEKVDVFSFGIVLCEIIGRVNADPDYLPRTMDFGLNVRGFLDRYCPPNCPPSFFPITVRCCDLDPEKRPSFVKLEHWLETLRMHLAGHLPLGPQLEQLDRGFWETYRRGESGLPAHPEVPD", "test": "Navigating the Kinome. Panel member name: LIMK1", "format": "functional"}, "[7]": {"target": "G protein-coupled receptor kinase 5 (Homo sapiens, UniProt P34947)", "test": "Navigating the Kinome. Panel member name: GPRK5", "format": "functional"}, "[8]": {"tested_on": "BJ", "test": "cells", "format": "functional, cell-based", "details": "Homo sapiens"}, "[9]": {"target": "T1, Insulin-degrading enzyme (Homo sapiens, UniProt P14735)", "T1 sequence (P14735 whole entry)": "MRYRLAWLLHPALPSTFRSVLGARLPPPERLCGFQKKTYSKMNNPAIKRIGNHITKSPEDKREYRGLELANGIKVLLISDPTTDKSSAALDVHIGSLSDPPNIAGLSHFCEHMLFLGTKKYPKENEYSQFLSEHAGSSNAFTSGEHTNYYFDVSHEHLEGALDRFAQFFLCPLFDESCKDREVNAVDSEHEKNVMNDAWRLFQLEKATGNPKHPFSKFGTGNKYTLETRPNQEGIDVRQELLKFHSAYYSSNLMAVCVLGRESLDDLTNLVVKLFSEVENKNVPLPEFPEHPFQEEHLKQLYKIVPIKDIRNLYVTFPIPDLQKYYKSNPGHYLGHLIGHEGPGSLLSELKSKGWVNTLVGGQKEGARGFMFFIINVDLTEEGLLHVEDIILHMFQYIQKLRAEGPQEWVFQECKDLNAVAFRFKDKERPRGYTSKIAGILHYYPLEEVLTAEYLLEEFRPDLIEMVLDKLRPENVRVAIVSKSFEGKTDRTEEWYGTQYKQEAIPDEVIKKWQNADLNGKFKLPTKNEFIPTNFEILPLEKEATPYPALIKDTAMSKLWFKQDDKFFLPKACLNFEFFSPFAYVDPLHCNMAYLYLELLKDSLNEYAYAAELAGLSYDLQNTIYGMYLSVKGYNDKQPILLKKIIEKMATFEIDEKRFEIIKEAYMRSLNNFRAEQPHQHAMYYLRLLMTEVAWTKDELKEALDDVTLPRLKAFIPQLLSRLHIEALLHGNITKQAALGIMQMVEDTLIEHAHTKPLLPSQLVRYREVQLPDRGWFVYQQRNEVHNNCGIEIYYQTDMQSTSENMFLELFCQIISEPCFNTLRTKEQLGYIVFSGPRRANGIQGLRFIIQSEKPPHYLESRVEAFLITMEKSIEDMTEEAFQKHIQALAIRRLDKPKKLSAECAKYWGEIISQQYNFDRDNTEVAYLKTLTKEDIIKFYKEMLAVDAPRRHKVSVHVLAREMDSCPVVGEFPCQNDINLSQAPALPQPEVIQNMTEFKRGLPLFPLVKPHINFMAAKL", "test": "activators of endogenous IDE in HEK cells, dose response, cell-based, fluorescence polarization (AID 588439)", "format": "functional"}, "[10]": {"tested_on": "HEK293", "test": "HEK cell cytotoxicity by LDH release, dose response, cytotoxicity control for IDE activator project, fluorescence, HEK cells (AID 588440);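 also: cytotoxicity by LDH release measuring loss of membrane integrity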", "format": "functional, cell-based", "details": "Homo sapiens"}, "[11]": {"tested_on": "HEK293", "test": "optical interference in Abeta FP readout, dose response, artefact control for IDE activator project, biochemical, fluorescence polarization (AID 588442)", "format": "functional, cell-based", "details": "Homo sapiens"}, "[12]": {"test": "HEK293T cytotoxicity, dose response, cytotoxicity control for miR-122 modulator project, cell-based, inhibitor set, cherry-pick, set 2 (AID 720697)", "format": "functional"}, "[13]": {"test": "HEK293T cytotoxicity, dose response, cytotoxicity control for miR-122 modulator project, cell-based, activator set, cherry-pick (AID 720690);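 also: HEK293T human cells scored for general mammalian cytotoxicity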", "format": "functional"}, "[14]": {"target": "Homeodomain-interacting protein kinase 2 (Homo sapiens, UniProt Q9H2X6)", "sequence (Q9H2X6 whole entry)": "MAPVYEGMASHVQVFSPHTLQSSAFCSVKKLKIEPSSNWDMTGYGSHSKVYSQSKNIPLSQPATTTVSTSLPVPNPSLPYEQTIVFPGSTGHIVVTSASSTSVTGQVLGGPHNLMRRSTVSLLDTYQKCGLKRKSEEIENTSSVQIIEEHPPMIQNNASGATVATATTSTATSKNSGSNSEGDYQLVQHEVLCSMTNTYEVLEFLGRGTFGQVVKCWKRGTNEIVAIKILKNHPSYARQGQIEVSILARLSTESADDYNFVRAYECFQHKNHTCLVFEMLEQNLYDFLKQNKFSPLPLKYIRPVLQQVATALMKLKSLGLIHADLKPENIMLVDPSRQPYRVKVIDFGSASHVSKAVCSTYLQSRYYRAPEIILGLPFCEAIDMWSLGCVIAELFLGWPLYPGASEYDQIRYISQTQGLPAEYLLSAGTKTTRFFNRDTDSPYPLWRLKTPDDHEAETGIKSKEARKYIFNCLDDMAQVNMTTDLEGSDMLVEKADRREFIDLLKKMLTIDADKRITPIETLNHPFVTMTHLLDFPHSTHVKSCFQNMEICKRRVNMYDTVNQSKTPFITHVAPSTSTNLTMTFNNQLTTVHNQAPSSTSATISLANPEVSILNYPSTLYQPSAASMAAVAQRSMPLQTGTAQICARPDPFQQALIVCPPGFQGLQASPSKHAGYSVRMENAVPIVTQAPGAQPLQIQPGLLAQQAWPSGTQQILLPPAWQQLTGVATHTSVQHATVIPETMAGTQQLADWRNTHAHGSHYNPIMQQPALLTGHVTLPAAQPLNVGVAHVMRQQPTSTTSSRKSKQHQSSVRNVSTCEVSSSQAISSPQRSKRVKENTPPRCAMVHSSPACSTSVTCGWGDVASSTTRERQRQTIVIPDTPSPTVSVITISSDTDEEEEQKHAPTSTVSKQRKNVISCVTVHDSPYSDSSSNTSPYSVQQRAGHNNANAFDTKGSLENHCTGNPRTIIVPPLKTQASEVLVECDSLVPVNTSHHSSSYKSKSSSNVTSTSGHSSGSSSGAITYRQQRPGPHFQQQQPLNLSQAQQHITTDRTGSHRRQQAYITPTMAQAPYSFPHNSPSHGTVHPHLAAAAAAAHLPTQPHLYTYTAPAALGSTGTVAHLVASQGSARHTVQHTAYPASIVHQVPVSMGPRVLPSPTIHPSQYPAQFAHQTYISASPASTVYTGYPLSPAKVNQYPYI", "format": "functional"}, "[15]": {"target": "Misshapen-like kinase 1 (Homo sapiens, UniProt Q8N4C8)", "sequence (Q8N4C8 whole entry)": "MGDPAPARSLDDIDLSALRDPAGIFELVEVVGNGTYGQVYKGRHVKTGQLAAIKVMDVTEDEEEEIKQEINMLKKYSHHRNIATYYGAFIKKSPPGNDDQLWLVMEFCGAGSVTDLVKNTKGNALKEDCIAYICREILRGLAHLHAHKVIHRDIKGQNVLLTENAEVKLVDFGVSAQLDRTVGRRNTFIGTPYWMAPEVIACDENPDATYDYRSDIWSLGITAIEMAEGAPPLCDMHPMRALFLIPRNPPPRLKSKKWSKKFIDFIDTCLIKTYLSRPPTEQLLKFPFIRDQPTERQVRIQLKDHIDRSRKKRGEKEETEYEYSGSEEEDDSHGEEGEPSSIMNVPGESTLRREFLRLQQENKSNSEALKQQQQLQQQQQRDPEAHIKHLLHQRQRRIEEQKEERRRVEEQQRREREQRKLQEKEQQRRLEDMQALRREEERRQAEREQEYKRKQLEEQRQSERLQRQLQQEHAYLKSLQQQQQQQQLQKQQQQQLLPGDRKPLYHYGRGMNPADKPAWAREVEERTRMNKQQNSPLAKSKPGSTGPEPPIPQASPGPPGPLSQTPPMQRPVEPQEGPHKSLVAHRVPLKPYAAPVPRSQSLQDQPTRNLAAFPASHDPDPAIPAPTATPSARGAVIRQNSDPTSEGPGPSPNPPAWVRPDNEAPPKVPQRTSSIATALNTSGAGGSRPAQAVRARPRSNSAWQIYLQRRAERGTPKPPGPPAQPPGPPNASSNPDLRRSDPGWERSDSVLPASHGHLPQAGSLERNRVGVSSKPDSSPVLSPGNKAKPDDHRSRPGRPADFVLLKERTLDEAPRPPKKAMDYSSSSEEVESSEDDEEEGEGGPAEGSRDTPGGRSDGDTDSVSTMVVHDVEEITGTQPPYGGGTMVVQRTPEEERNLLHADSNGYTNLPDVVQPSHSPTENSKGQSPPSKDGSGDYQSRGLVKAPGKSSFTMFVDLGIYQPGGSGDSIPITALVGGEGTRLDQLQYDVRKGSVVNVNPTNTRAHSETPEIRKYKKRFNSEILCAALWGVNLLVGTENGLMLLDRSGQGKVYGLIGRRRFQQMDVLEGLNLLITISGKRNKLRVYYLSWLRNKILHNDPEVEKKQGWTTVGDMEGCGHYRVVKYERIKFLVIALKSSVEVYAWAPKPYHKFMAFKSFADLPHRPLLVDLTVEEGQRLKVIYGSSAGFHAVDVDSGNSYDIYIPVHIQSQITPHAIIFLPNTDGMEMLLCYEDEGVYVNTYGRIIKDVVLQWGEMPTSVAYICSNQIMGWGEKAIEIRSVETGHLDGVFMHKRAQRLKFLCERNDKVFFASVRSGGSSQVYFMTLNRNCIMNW", "format": "functional"}, "[16]": {"target": "Maternal embryonic leucine zipper kinase (Homo sapiens, UniProt Q14680)", "sequence (Q14680 whole entry)": "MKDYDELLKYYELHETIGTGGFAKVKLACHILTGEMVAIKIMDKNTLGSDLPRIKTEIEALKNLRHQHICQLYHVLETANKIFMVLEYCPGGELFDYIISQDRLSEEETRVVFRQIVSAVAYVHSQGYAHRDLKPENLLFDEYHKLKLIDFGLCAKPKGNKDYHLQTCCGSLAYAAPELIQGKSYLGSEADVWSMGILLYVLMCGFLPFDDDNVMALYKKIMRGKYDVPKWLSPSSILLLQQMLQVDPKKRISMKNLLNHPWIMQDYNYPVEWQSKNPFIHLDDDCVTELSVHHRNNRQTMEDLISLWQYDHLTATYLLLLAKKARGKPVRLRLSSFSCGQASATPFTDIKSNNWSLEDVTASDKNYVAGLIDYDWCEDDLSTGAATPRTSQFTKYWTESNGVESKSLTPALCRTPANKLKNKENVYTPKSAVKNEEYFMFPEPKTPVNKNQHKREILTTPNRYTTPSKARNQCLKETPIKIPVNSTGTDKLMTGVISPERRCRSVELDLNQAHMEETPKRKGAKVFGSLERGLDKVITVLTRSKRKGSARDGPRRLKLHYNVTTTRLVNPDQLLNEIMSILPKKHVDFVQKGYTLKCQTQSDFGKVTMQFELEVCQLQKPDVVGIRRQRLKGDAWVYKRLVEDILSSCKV", "format": "functional"}, "[17]": {"target": "cAMP-dependent protein kinase catalytic subunit alpha (Homo sapiens, UniProt P17612)", "format": "functional"}, "[18]": {"target": "T2, Mannose-6-phosphate isomerase (Homo sapiens, UniProt P34949)", "T2 sequence (P34949 whole entry)": "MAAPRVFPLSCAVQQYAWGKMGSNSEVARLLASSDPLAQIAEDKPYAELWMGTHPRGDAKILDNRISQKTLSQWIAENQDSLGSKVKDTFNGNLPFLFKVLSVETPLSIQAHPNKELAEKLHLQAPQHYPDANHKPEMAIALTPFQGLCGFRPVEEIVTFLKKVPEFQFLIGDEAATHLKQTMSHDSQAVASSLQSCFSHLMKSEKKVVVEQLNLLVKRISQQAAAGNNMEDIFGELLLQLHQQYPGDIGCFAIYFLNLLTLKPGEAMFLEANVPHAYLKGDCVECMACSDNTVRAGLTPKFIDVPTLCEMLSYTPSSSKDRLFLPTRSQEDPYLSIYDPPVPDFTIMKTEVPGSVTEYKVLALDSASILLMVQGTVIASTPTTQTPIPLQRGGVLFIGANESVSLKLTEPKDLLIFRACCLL", "test": "inhibitors of human PMI, primary screen, biochemical, fluorescence intensity, coupled assay (AID 1209)"}, "[19]": {"test": "Vero E6 cell cytotoxicity, dose response, cytotoxicity control for non-replicating M. tuberculosis project, secondary assay (AID 492998)", "format": "functional, VeroE6", "details": "Vero C1008"}, "[20]": {"target": "Serine/threonine-protein phosphatase PP1-alpha catalytic subunit (Homo sapiens, UniProt P62136)", "sequence (P62136 whole entry)": "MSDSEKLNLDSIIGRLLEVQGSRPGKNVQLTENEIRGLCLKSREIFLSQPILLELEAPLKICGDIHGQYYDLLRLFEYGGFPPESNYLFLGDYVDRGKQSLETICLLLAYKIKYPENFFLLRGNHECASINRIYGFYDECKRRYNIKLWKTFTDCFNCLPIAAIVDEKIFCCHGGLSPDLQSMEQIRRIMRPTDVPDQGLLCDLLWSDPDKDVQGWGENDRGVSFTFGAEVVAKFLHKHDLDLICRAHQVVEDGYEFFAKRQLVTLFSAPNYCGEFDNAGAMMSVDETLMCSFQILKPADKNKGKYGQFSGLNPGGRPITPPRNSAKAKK", "test": "PP1 phosphatase inhibitors, dose response, biochemical, fluorescence (AID 2394)"}, "[21]": {"target": "T3, Sentrin-specific protease 8 (Homo sapiens, UniProt Q96LD8)", "T3 sequence (Q96LD8 whole entry)": "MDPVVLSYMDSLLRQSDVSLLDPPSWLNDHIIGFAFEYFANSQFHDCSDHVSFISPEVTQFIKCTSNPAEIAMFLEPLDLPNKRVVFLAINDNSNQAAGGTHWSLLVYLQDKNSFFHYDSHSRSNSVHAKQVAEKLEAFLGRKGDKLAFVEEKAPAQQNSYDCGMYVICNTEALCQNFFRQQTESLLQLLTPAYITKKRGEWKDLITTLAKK", "format": "functional"}}, "note": "Calls of active or inactive are those of the source.", "data": [{"smiles": "CCOC(=O)c1ccc(NC2=CC(=O)C(=O)c3ccccc32)cc1", "values": [{"measurement": "IC50", "setting": "[1]", "value": "2.81 µM (active)"}, {"measurement": "IC50", "setting": "[2]", "value": "> 69.5 µM (not active)"}, {"measurement": "CC50", "setting": "[3]", "value": "22.3 µM (active)"}, {"measurement": "AC50", "setting": "[4]", "value": "6.65 µM (active)"}]}, {"smiles": "O=C(O)C1CN(Cc2ccc(OCc3ccccc3)cc2Cl)C1", "values": [{"measurement": "Ki", "setting": "[5]", "value": "> 3.98 µM (inactive)"}, {"measurement": "Ki", "setting": "[6]", "value": "> 3.16 µM (inactive)"}, {"measurement": "Ki", "setting": "[7]", "value": "> 3.98 µM (inactive)"}]}, {"smiles": "OC(CNCCC1C=Nc2ccccc21)Cn1c2ccc(Cl)cc2c2cc(Cl)ccc21", "note": "(stereo not given)", "values": [{"measurement": "EC50", "setting": "[8]", "value": "> 75 µM (not active)"}, {"measurement": "EC50", "setting": "[9]", "value": "> 54.7 µM (inactive)"}, {"measurement": "IC50", "setting": "[10]", "value": "10.2 µM (inactive)"}, {"measurement": "EC50", "setting": "[11]", "value": "> 56 µM (inactive)"}, {"measurement": "AC50", "setting": "[12]", "value": "7.91 µM (active)"}, {"measurement": "AC50", "setting": "[13]", "value": "6.52 µM (active)"}]}, {"smiles": "NC1CCC(Nc2nc(Cl)cc(-c3c[nH]c4ncccc34)n2)CC1", "note": "(stereo not given)", "values": [{"measurement": "Ki", "setting": "[14]", "value": "0.0398 µM (active)"}, {"measurement": "pKi", "setting": "[14]", "value": 7.4}, {"measurement": "Ki", "setting": "[15]", "value": "0.02 µM (active)"}, {"measurement": "pKi", "setting": "[15]", "value": 7.7}, {"measurement": "Ki", "setting": "[16]", "value": "0.00316 µM (active)"}, {"measurement": "pKi", "setting": "[16]", "value": 8.5}, {"measurement": "Ki", "setting": "[17]", "value": "0.00794 µM (active)"}, {"measurement": "pKi", "setting": "[17]", "value": 8.1}]}, {"smiles": "Cc1ccccc1-c1cc2c(nn1)-c1ccccc1C2=O", "values": [{"measurement": "IC50", "setting": "[18]", "value": "> 50 µM (not active)"}, {"measurement": "CC50", "setting": "[19]", "value": "9.21 µM (active)"}]}, {"smiles": "COc1ccc(C(=O)c2nccc3cc(OC)c(OC)cc23)cc1OC", "values": [{"measurement": "IC50", "setting": "[20]", "value": "> 67 µM (not active)"}, {"measurement": "IC50", "setting": "[21]", "value": "2.47 µM (active)"}]}]}
